# Results taken from US12419869B2, “Methods of treating multiple sclerosis” (Vanda Pharmaceuticals Inc., priority 2021, dated 2025).
# “And” between values parts separate entries of the source, which are not always exact repeats. Equal entries are not always repeated.
# Experiments:
# Assay type in all cases: in vivo, human
# [1] = tested on: adult subjects with relapsing MS; assay: Blood pressure, Study 1; conditions: for Average increase in diastolic blood pressure / Average increase in systolic blood pressure: Study 1
# Method: An increase in blood pressure with PONVORY was first detected after approximately 1 month of treatment initiation and persisted with continued treatment. Hypertensive events were reported as an adverse reaction in 10.1% of PONVORY-treated patients and in 9.0% of patients receiving teriflunomide 14 mg. One patient treated with PONVORY experienced a hypertensive crisis but had evidence of longstanding hypertensive heart disease. Blood pressure should be monitored during treatment with PONVORY and managed appropriately.
# [2] = tested on: adult subjects with relapsing MS; assay: Confirmed relapses / annualized relapse rate up to EOS, phase III study ponesimod 20 mg vs teriflunomide 14 mg; conditions: for Mean estimate (ARR), confirmed relapses up to EOS: negative binomial regression, teriflunomide 14 mg, ponesimod 20 mg; for Percentage of patients without relapse: study period of approximately 108 weeks
# Method: Primary efficacy variable/primary timepoint: The primary endpoint was annualized relapse rate (ARR) up to the end of study (EOS) defined as the number of confirmed relapses per subject-year. All available data up to EOS, regardless of treatment discontinuation was included (ITT approach).
# The primary statistical analysis of the ARR endpoint was performed on the FAS using a negative binomial model for confirmed relapses, with the stratification variables prior use of disease-modifying therapies (DMTs) and EDSS category as well as the number of relapses in the year prior to study entry, included in the model and time in the study as an offset variable. Sensitivity analyses was performed on the PPS and also based on different subgroups derived from baseline variables.
# A relapse is defined as new, worsening or recurrent neurological symptoms that occur at least 30 days after the onset of a preceding relapse, and that last at least 24 hours, in the absence of fever or infection.
# A relapse was confirmed by the treating neurologist only when the subjects' symptoms were accompanied by an increase in EDSS/FS (functional system) scores, which were consistent with the subject's symptoms, from a previous clinically stable EDSS/FS assessment (i.e., performed at least 30 days after the onset of any previous relapse), obtained by the efficacy assessor and consistent with the following: • An increase of at least half a step (0.5 points; unless EDSS=0, then an increase of at least 1.0 points is required) or • An increase of at least 1.0 point in at least two FS scores, or • An increase of at least 2.0 points in at least one FS score (excluding bladder/bowel and cerebral).
# The primary statistical analysis was performed up to EOS on the FAS using a negative binomial regression model for confirmed relapses, with treatment as a factor and the binary stratification variables (EDSS≤3.5 versus EDSS>3.5; DMTs within last 2 years prior to randomization [Yes/No]) and the number of relapses in the year prior to study entry (categories≤1 (or missing) and […]) included in the model. The model also included an offset variable defined as the log of time on study (in years) from randomization up to EOS.
# [3] = tested on: adult subjects with relapsing MS; assay: 12-lead ECG heart rate and AV conduction at treatment initiation (Day 1, ponesimod 2 mg)
# Method: As per up-titration regimen, the dose of ponesimod on Day 1 is 2 mg.
# The incidence of treatment-emergent heart rate and rhythm (including hypotension) AESIs on Day 1 was higher in the ponesimod 20 mg arm (2.1%) than in the teriflunomide 14 mg arm (0.4%). However, the overall incidence of first dose AESI on Day 1 was low (2.1%) in ponesimod. None of these events were serious nor led to permanent discontinuation of study treatment. Discharge criteria at 4 hours post-dose were met for ca. 99% of subjects. […] ECG HR effect: nadir at 2 hours post-dose (siponimod—3-4 hours, fingolimod—around by 6 hours). Low incidence of low HR outliers (post-dose HR 40 bpm), all 3 of them with a pre-treatment HR of <55 bpm, which is a known risk factor for post-dose bradycardia with SIP receptor modulators.
# The mean heart rate reduction compared to pre-dose reached a maximum for ponesimod 20 mg at 2-hours post dose, −8.7 bpm compared to −1.7 bpm for teriflunomide 14 mg (FIG. 6).
# Initiation of PONVORY may result in a transient decrease in HR. In Study 1, bradycardia at treatment initiation and sinus bradycardia on ECG (defined as HR less than 50 bpm) occurred in 5.8% of PONVORY-treated patients compared to 1.6% of patients receiving teriflunomide 14 mg. After the first titration dose of PONVORY, the decrease in heart rate typically begins within an hour and reaches its nadir within 2-4 hours. The heart rate typically recovers to baseline levels 4-5 hours after administration. The mean decrease in heart rate on Day 1 of dosing was 6 bpm. With up-titration after Day 1, the post-dose decrease in heart rate is less pronounced. […] On Day 1, 3 patients treated with PONVORY had asymptomatic post-dose HR below or equal to 40 bpm; all 3 patients had baseline HRs below 55 bpm.
# [4] = tested on: adult subjects with relapsing MS; assay: Brain MRI lesions (CUAL, Gd+ T1, new/enlarging T2) from baseline to Week 108; conditions: for CUAL mean estimate (Lesions per year): baseline to Week 108, negative binomial regression, Full Analysis Set
# Method: CUAL are new Gd+T1 lesions plus new or enlarging T2 lesions (without double-counting of lesions).
# MRI scans were performed at Visits 2 (Baseline), 10 (Week 60), and 14 (EOT) and at any unscheduled visit (U1, U2, etc.). If applicable, MRI scans also were performed at the corresponding visits in the PTOP (Visits 10A and 14A). Testing at all visits were performed up to 7 days prior to or after the visit date.
# MRI variables included the number and volume of new and total Gd+ lesions on T1-weighted MRI scans, number of new and enlarging lesions and lesion volume on T2-weighted MRI, and global measures of loss of brain tissue.
# T1-weighted imaging before and after i.v. administration of 0.1 mmol/kg body weight (=0.2 mL/kg) of Gd as well as PD-T2-weighted imaging was performed. Gd may cause nausea and vomiting and in very rare cases allergic reactions that could require immediate anti-anaphylactic therapy (such as steroids, epinephrine/adrenaline, etc.).
# Patients (18-55 years) with RMS (expanded disability status scale scores: 0-5.5) were randomized (1:1) to receive ponesimod (PON) 20 mg or teriflunomide (TER) 14 mg for 108 weeks. MRI assessments were: volume of T2 lesions; mean number of new gadolinium-enhancing (Gd+) T1 lesions and new/enlarging T2 lesions; and absence of active MRI lesions at week 108. NEDA-3 status (absence of confirmed relapse, Gd+T1 lesions and new/enlarging T2 lesions on annual MRIs, and 12-week confirmed disability accumulation) was evaluated from baseline to week 108.
compound,measurement,setting,value
"C/C(O)=C(\C#N)C(=O)Nc1ccc(C(F)(F)F)cc1 [Teriflunomide, reference compound]",Average increase in diastolic blood pressure,[1],3.1 mm Hg
same,Average increase in systolic blood pressure,[1],2.8 mm Hg
same,"Mean estimate (ARR), confirmed relapses up to EOS",[2]; Full Analysis Set,0.290
same,Percentage of patients without relapse,[2],60.6%
same,Mean heart rate change compared to pre-dose at 2 hours post dose (maximum),[3]; Day 1,−1.7 bpm
same,Subjects with asymptomatic post-dose HR ≤40 bpm,[3]; Day 1,none
same,Bradycardia at treatment initiation and sinus bradycardia on ECG (HR less than 50 bpm),[3]; Study 1,1.6%
same,First-degree AV block (prolonged PR interval on ECG),[3]; Study 1,1.2%
same,CUAL mean estimate (Lesions per year),[4],3.164 lesions per year
same,Mean number of new Gd+ T1 lesions per scan / per MRI,[4]; baseline to week 108,0.43
"CCC/N=C1\S/C(=C\c2ccc(OC[C@H](O)CO)c(Cl)c2)C(=O)N1c1ccccc1C [Ponesimod, (R)-5-[3-chloro-4-(2,3-dihydroxy-propoxy)-benz[Z]ylidene]-2-([Z]-propylimino)-3-o-tolyl-thiazolidin-4-one]",Average increase in diastolic blood pressure,[1],2.8 mm Hg
same,Average increase in systolic blood pressure,[1],2.9 mm Hg
same,Time after treatment initiation at which blood pressure increase was first detected,[1]; in vivo,approximately 1 month
same,Raw ARR,"[2]; Full Analysis Set, up to EOS",0.216
same,Total number of relapses,"[2]; Full Analysis Set, up to EOS",242
same,"Treatment effect (rate ratio) on ARR, ponesimod vs teriflunomide","[2]; Full Analysis Set, up to EOS",0.695
same,"Mean estimate (ARR), confirmed relapses up to EOS",[2]; Full Analysis Set,0.202
same,Percentage of patients without relapse,[2],70.7%
same,Relative reduction of ARR compared to teriflunomide 14 mg,[2]; up to EOS,30.5%
same,Mean heart rate change compared to pre-dose at 2 hours post dose (maximum),[3]; Day 1,−8.7 bpm
same,Subjects meeting discharge criteria at 4 hours post-dose,[3]; Day 1,ca. 99%
same,Subjects with asymptomatic post-dose HR ≤40 bpm,[3]; Day 1,3
same,Time for heart rate to recover to baseline / pre-dose values,[3]; Day 1,4 to 5 h
same,ECG HR effect: time of nadir post-dose,"[3]; Day 1, 2 mg",2 h
same,Bradycardia at treatment initiation and sinus bradycardia on ECG (HR less than 50 bpm),[3]; Study 1,5.8%
same,First-degree AV block (prolonged PR interval on ECG),[3]; Study 1,3.4%
same,Mean decrease in heart rate on Day 1 of dosing,[3]; Study 1,6 bpm
same,Second- and third-degree AV blocks,[3]; Study 1,not reported
same,Time to heart rate nadir / maximal effect after first dose,[3]; post-dose,2 to 4 h
same,CUAL mean estimate (Lesions per year),[4],1.405 lesions per year
same,CUAL mean estimate (Lesions per year),[4]; listed as ponesimod,1.405 lesions per year
same,CUAL treatment effect (Rate Ratio) ponesimod vs teriflunomide,[4]; baseline to week 108,0.444 and 0.44
same,LS mean difference (PON-TER) in change from baseline in total volume of T2 lesions,[4]; baseline to week 108,−399.2 mm^3
same,Mean number of new Gd+ T1 lesions per scan / per MRI,[4]; baseline to week 108,0.18
same,Mean number of new/enlarging T2 lesions per year,[4]; baseline to week 108,1.40
same,"Rate ratio, new Gd+ T1 lesions per scan, PON vs TER",[4]; baseline to week 108,0.42
same,"Rate ratio, new/enlarging T2 lesions per year, PON vs TER",[4]; baseline to week 108,0.44
same,Raw mean lesions/year (CUAL),[4]; baseline to week 108,1.559 lesions/year
same,Reduction of number of CUALs compared to teriflunomide 14 mg,[4]; baseline to week 108,56%
same,Total number of lesions (CUAL),[4]; baseline to week 108,1671
same,"Relative reduction, T1 Gd-enhancing lesions per MRI",[4]; vs teriflunomide 14 mg,58.5% (p < 0001)
same,"Relative reduction, new or enlarging T2 hyperintense lesions per year",[4]; vs teriflunomide 14 mg,55.7% (p < 0001)
same,Odds ratio PON vs TER for absence of new Gd+ T1 lesions,[4]; week 108,2.18
same,Odds ratio PON vs TER for absence of new/enlarging T2 lesions,[4]; week 108,1.71
